≈ marks a conversion by molar mass, not a printed value. Like-named read-outs stand apart in the source and are kept apart here.
Columns and labels:
[1] = test system: Peptostreptococcus anaerobius; experiment: MIC against anaerobic bacteria, tube dilution method; format: cell-based; settings: anaerobic conditions, 35°C, 48 h (confirmed 72 h)
[2] = test system: Staphylococcus aureus CCM 4223; experiment: MIC, standard microdilution method; settings: CCM4223, 24 h
[3] = test system: Enterococcus faecalis CCM 4224; experiment: Induction of resistance by repeated passages, MIC after each step; format: cell-based
Solubility in water = format: physicochemical
[4] = test system: Salmonella typhimurium TA98 and TA100; experiment: Ames test for genotoxicity (Salmonella/microsome reversion assay, without S9); format: cell-based; settings: at relevant concentrations, without metabolic activation
Protocol: The Salmonella/microsome reversion assay was conducted using the plate incorporation procedure described by Marona and Ames. The Ames test was performed utilizing two different bacterial strains of Salmonella typhimurium: strain TA98 for frame-shift mutations and strain TA100 for base-pair substitution. All strains were maintained and stored according to the standard procedures. All samples were tested without metabolic activation (S9) to detect direct mutagenic compounds. The test was performed with plate incorporation method in duplicate at the increasing concentrations. The plates were incubated at 37°C for 72 h in the dark. The number of his+ revertants was estimated with the counter. Results were expressed as mutation ratios (Φ) calculated as the number of colonies on test plates/number of colonies on solvent control plates. A compound is considered mutagenic when Φ is more than 2 and a dose–response effect is evident.

Streptococcus agalactiae [5] = experiment: Induction of resistance by repeated passages, MIC after each step; format: cell-based
Streptococcus agalactiae [6] = experiment: MIC, standard microdilution method; settings: 24 h
[7] = Carboxyfluorescein leakage assay, LUV from erythrocyte lipids; format: biochemical, human; settings: LPPO 0.8 mg/L, 60 μM phospholipid, 25°C
Protocol: After evaporation of the solvent in vaccuo at 40°C, the phospholipids were dissolved in chloroform, filtered through glass fiber filters (Whatman) and concentrated under a stream of nitrogen. The lipid samples were stored at -80°C and used for liposome preparation. Vesicles to be used in the carboxyfluorescein (CF) leakage assay were prepared by mixing the appropriate amount of lipids (1 mg/ml) with chloroform/methanol 2:1 (v/v). The solvent was subsequently evaporated under a nitrogen gas stream obtaining a thin film on the walls of a glass tube. […] The release of vesicle contents after adding LPPO solutions was evaluated by the increased fluorescence intensity of CF released into the milieu which we express as the percentage of leakage. […] Maximum release of CF fluorescence (F max) was induced by lysing the vesicles with 0.1% (v/v) Triton X-100. Fluorescence intensity was monitored in time (excitation at 480 nm, emission at 515 nm) at 25°C using FluoroMax-3 (Jobin Yvon, Horriba) spectrofluorometer. The following equation was used to calculate the percent of CF leakage: % CF leakage = [(F–F 0)/(F max−F 0)] × 100, where F is the actual fluorescence intensity and F 0 is the fluorescence intensity before addition of the permeabilizing agent. […]

[8] = test system: Staphylococcus epidermidis 8700/B; experiment: MIC, standard microdilution method; settings: 24 h
S. aureus MRSA 4591 = experiment: MIC, standard microdilution method; settings: Staphylococcus aureus, 24 h
[9] = CCM4224, read-out: MIC after induction step, step 1
[10] = CCM4224, read-out: MIC after induction step, step 2
[11] = CCM4224, read-out: MIC after induction step, step 3
[12] = CCM4224, read-out: MIC after induction step, step 4
[13] = CCM4224, read-out: MIC after induction step, step 5
[14] = CCM4224, read-out: MIC after induction step, step 6
[15] = CCM4224, read-out: MIC after induction step, step 7
[16] = CCM4224, read-out: MIC after induction step, step 8
[17] = CCM4224, read-out: MIC after induction step, step 9
[18] = CCM4224, read-out: MIC after induction step, step 10
[19] = CCM4224, read-out: MIC after induction step, step 11
[20] = CCM4224, read-out: MIC after induction step, step 12
[21] = CCM4224, read-out: MIC after induction step, step 13
[22] = CCM4224, read-out: MIC after induction step, step 14
[23] = read-out: MIC after induction step, step 1
[24] = read-out: MIC after induction step, step 2
[25] = read-out: MIC after induction step, step 3
[26] = read-out: MIC after induction step, step 4
[27] = read-out: MIC after induction step, step 5
[28] = read-out: MIC after induction step, step 6
[29] = read-out: MIC after induction step, step 7
[30] = read-out: MIC after induction step, step 8
[31] = read-out: MIC after induction step, step 9
[32] = read-out: MIC after induction step, step 10
[33] = read-out: MIC after induction step, step 11
[34] = read-out: MIC after induction step, step 12
[35] = read-out: MIC after induction step, step 13
[36] = read-out: MIC after induction step, step 14

Row | Structure (SMILES) | MIC [1] | MIC [2] | MIC [3, 9] | MIC [3, 10] | MIC [3, 11] | MIC [3, 12] | MIC [3, 13] | MIC [3, 14] | MIC [3, 15] | MIC [3, 16] | MIC [3, 17] | MIC [3, 18] | MIC [3, 19] | MIC [3, 20] | MIC [3, 21] | MIC [3, 22] | solubility (Solubility in water) | genotoxicity (mutagenic potential) [4] | MIC (Streptococcus agalactiae [5]; [23]) | MIC (Streptococcus agalactiae [5]; [24]) | also measured
1 | CCCCCCCCCCCCCCCCOP(=O)(CCN1C[C@@H](O)[C@H](O)C1)OC[C@H]1O[C@@H](n2ccc(=O)[nH]c2=O)[C@H](O)[C@@H]1O (stereo partly drawn) [DR5026] | 1.56 µg/mL (≈ 2.36 µM) | 25 µg/mL (≈ 37.8 µM) | 6.2 µg/mL (≈ 9.37 µM) | 6.2 µg/mL (≈ 9.37 µM) | 6.2 µg/mL (≈ 9.37 µM) | 6.2 µg/mL (≈ 9.37 µM) | 6.2 µg/mL (≈ 9.37 µM) | 12.5 µg/mL (≈ 18.9 µM) | 12.5 µg/mL (≈ 18.9 µM) | 12.5 µg/mL (≈ 18.9 µM) | 12.5 µg/mL (≈ 18.9 µM) | 12.5 µg/mL (≈ 18.9 µM) | 12.5 µg/mL (≈ 18.9 µM) | 12.5 µg/mL (≈ 18.9 µM) | 12.5 µg/mL (≈ 18.9 µM) | 12.5 µg/mL (≈ 18.9 µM) | > 10000 µg/mL | Neither of the two compounds was found to be genotoxic | 3.1 µg/mL (≈ 4.68 µM) | 3.1 µg/mL (≈ 4.68 µM) | MIC (Streptococcus agalactiae [5]; [25]): 3.1 µg/mL (≈ 4.68 µM); MIC (Streptococcus agalactiae [5]; [26]): 3.1 µg/mL (≈ 4.68 µM); MIC (Streptococcus agalactiae [5]; [27]): 3.1 µg/mL (≈ 4.68 µM); MIC (Streptococcus agalactiae [5]; [28]): 3.1 µg/mL (≈ 4.68 µM); MIC (Streptococcus agalactiae [5]; [29]): 6.2 µg/mL (≈ 9.37 µM); MIC (Streptococcus agalactiae [5]; [30]): 6.2 µg/mL (≈ 9.37 µM); MIC (Streptococcus agalactiae [5]; [31]): 3.1 µg/mL (≈ 4.68 µM); MIC (Streptococcus agalactiae [5]; [32]): 3.1 µg/mL (≈ 4.68 µM); MIC (Streptococcus agalactiae [5]; [33]): 3.1 µg/mL (≈ 4.68 µM); MIC (Streptococcus agalactiae [5]; [34]): 6.2 µg/mL (≈ 9.37 µM); MIC (Streptococcus agalactiae [5]; [35]): 6.2 µg/mL (≈ 9.37 µM); MIC (Streptococcus agalactiae [5]; [36]): 6.2 µg/mL (≈ 9.37 µM); MIC (Streptococcus agalactiae [6]): 3.12 µg/mL (≈ 4.72 µM); CF release, % of the maximum (Triton X-100) [7]: 8%; MIC [8]: 3.12 µg/mL (≈ 4.72 µM); MIC (S. aureus MRSA 4591): 25 to 50 µg/mL (≈ 37.8 to 75.6 µM)
2 | CCCCCCCCCCCCCCCCOCCCOP(=O)(CCN1C[C@@H](O)[C@H](O)C1)OC[C@H]1O[C@@H](n2ccc(=O)[nH]c2=O)[C@H](O)[C@@H]1O (stereo partly drawn) [DR5047] | 1.56 µg/mL (≈ 2.17 µM) | > 200 µg/mL | 12.5 µg/mL (≈ 17.4 µM) | 12.5 µg/mL (≈ 17.4 µM) | 12.5 µg/mL (≈ 17.4 µM) | 12.5 µg/mL (≈ 17.4 µM) | 25 µg/mL (≈ 34.7 µM) | 25 µg/mL (≈ 34.7 µM) | 25 µg/mL (≈ 34.7 µM) | 25 µg/mL (≈ 34.7 µM) | 25 µg/mL (≈ 34.7 µM) | 50 µg/mL (≈ 69.5 µM) | 25 µg/mL (≈ 34.7 µM) | 25 µg/mL (≈ 34.7 µM) | 25 µg/mL (≈ 34.7 µM) | 25 µg/mL (≈ 34.7 µM) | > 10000 µg/mL | Neither of the two compounds was found to be genotoxic | 6.2 µg/mL (≈ 8.61 µM) | 6.2 µg/mL (≈ 8.61 µM) | MIC (Streptococcus agalactiae [5]; [25]): 6.2 µg/mL (≈ 8.61 µM); MIC (Streptococcus agalactiae [5]; [26]): 6.2 µg/mL (≈ 8.61 µM); MIC (Streptococcus agalactiae [5]; [27]): 6.2 µg/mL (≈ 8.61 µM); MIC (Streptococcus agalactiae [5]; [28]): 6.2 µg/mL (≈ 8.61 µM); MIC (Streptococcus agalactiae [5]; [29]): 3.1 µg/mL (≈ 4.31 µM); MIC (Streptococcus agalactiae [5]; [30]): 6.2 µg/mL (≈ 8.61 µM); MIC (Streptococcus agalactiae [5]; [31]): 6.2 µg/mL (≈ 8.61 µM); MIC (Streptococcus agalactiae [5]; [32]): 6.2 µg/mL (≈ 8.61 µM); MIC (Streptococcus agalactiae [5]; [33]): 6.2 µg/mL (≈ 8.61 µM); MIC (Streptococcus agalactiae [5]; [34]): 6.2 µg/mL (≈ 8.61 µM); MIC (Streptococcus agalactiae [5]; [35]): 6.2 µg/mL (≈ 8.61 µM); MIC (Streptococcus agalactiae [5]; [36]): 6.2 µg/mL (≈ 8.61 µM); MIC (Streptococcus agalactiae [6]): 6.25 µg/mL (≈ 8.68 µM); CF release, % of the maximum (Triton X-100) [7]: 4%; MIC [8]: 3.12 µg/mL (≈ 4.34 µM); MIC (S. aureus MRSA 4591): > 200 µg/mL

— paper PMC4696656, “Insights into the Mechanism of Action of Bactericidal Lipophosphonoxins” (PLoS ONE, 2015)
